According to patent publication US20250326794A1, “ANTI-CANCER LEUCINE-RICH PEPTIDES AND USES THEREOF” (KING'S COLLEGE LONDON, priority 2019, published 2025):
Like-named read-outs stand apart in the source and are kept apart here.

Experiments:
[1] = Tryptophan fluorescent binding assay, POPC vesicles; conditions: 50 μM peptide, PBS pH 7.4, lipid per peptide
Procedure, shortened: (§1)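 Binding followed by tryptophan emission (300-450 nm, 280 nm excitation, 3 scans averaged) after 60 min incubation of 50 μM peptide with 0-5000 μM extruded 100 nm POPC or 3:1 POPC/POPG vesicles in PBS pH 7.4. Value: lipid-to-peptide ratio at half-maximal binding.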

[2] = Tryptophan fluorescent binding assay, 3POPC/1POPG vesicles; conditions: 50 μM peptide, PBS pH 7.4, lipid per peptide
Procedure, shortened: as §1

[3] = ANTS/DPX liposome leakage assay, POPC vesicles; assay type: biochemical; conditions: 0.5 mM vesicles; for Peptide Concentration-induced 50% ANTS/DPX leakage at pH 4.8, POPC Vesicle: pH 4.8, lipid per peptide; for Peptide Concentration-induced 50% ANTS/DPX leakage at pH 7.4, POPC Vesicle: pH 7.4, lipid per peptide
Procedure, shortened: (§2)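 Peptide titrations (0–20 μM) were incubated 3 h with 0.5 mM ANTS/DPX-loaded 100 nm vesicles, either POPC alone or 3:1 POPC/POPG, at pH 7.4 or pH 4.8 in PBS. ANTS fluorescence (350/510 nm) normalized to Triton-lysed vesicles; 50%-leakage values given as lipid:peptide ratio.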

[4] = ANTS/DPX liposome leakage assay, 3POPC/1POPG vesicles; assay type: biochemical; conditions: for Peptide Concentration-induced 50% ANTS/DPX leakage at pH 4.8, 3POPC/1POPG Vesicle / Peptide Concentration-induced 50% ANTS/DPX leakage at pH 7.4, 3POPC/1POPG Vesicle: 0.5 mM vesicles; for Peptide Concentration-induced 50% ANTS/DPX leakage at pH 4.8, 3POPC/1POPG Vesicle: pH 4.8, lipid per peptide; for Peptide Concentration-induced 50% ANTS/DPX leakage at pH 7.4, 3POPC/1POPG Vesicle: pH 7.4, lipid per peptide; for liposome leakage activity from anionic vesicle at pH 4.8 (in words): anionic versus zwitterionic vesicle
Procedure, shortened: as §2

HMLER-shEcad cells = assay: HMLER-shEcad viability with co-incubated necroptosis/apoptosis inhibitors; assay type: cell-based, human; conditions: 20 μM necrostatin-1 or 5 μM z-VAD-FMK (FIG. 9C, 9D)
[5] = system: HEK293T (human embryonic kidney cell); assay: cells; conditions: 72 h
[6] = system: HMLER (human breast cancer bulk cell); assay: cells; conditions: 72 h
Procedure, shortened: (§3)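 MTT viability after 72 h exposure to 0–100 μM compound (final DMSO 0.5% or 0%), 5×10^3 cells/well; HMLER lines and MCF-10A in MEGM, U2OS in DMEM with 10% FBS. A550 normalized to matching vehicle controls; IC50 interpolated from dose–response curves.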

[7] = system: HMLER-shEcad (human breast cancer stem cell); assay: cells
Procedure, shortened: as §3

[8] = system: MCF-10A (human breast epithelial cell); assay: cells; conditions: 72 h
Procedure, shortened: as §3

[9] = system: U2OS (human bone osteosarcoma); conditions: 72 h
Procedure, shortened: as §3

[10] = system: HMLER-shEcad mammospheres; assay: Tumoursphere formation and viability assay (TOX8); assay type: cell-based, human; conditions: for decrease in activity, two-dimensional versus mammospheres: HMLER-shEcad 2D IC50 versus mammosphere IC50

Row | SMILES | Lipid Concentration-induced 50% Peptide Binding, POPC Vesicle [1] [L/P] | Lipid Concentration-induced 50% Peptide Binding, 3POPC/1POPG Vesicle [2] [L/P] | Peptide Concentration-induced 50% ANTS/DPX leakage at pH 4.8, POPC Vesicle [3] [L/P] | Peptide Concentration-induced 50% ANTS/DPX leakage at pH 7.4, POPC Vesicle [3] [L/P] | Peptide Concentration-induced 50% ANTS/DPX leakage at pH 4.8, 3POPC/1POPG Vesicle [4] [L/P] | Peptide Concentration-induced 50% ANTS/DPX leakage at pH 7.4, 3POPC/1POPG Vesicle [4] [L/P] | liposome leakage activity from anionic vesicle at pH 4.8 (in words) [4] | cell viability on co-incubation with necrostatin or z-VAD-FMK (HMLER-shEcad cells) | IC50 [5] [µM] | IC50 [6] [µM] | IC50 ([7]; 72 h) [nM] | IC50 [8] [µM] | IC50 [9] [µM] | decrease in activity, two-dimensional versus mammospheres [10] | IC50 ([5]; Homo sapiens, HEK-293T, read-out: IC50 HEK293T) [µM] | IC50 ([6]; Homo sapiens, read-out: IC50 HMLER) [µM] | IC50 ([7]; Homo sapiens, 72 h, read-out: IC50 HMLER-shEcad) [nM] | IC50 ([7]; Homo sapiens, read-out: IC50 against two-dimensional HMLER-shEcad) [nM] | IC50 ([8]; Homo sapiens, MCF-10A, read-out: IC50 MCF-10A) [µM] | IC50 ([10]; Homo sapiens, read-out: IC50 in mammospheres) [µM]
1 | CC(C)C[C@H](NC(=O)CN)C(=O)N[C@@H](CC(C)C)C(=O)N[C@@H](CCC(=O)O)C(=O)N[C@@H](CC(C)C)C(=O)N[C@@H](CC(C)C)C(=O)N[C@@H](CCC(=O)O)C(=O)N[C@@H](CC(C)C)C(=O)N[C@@H](CC(C)C)C(=O)N[C@@H](CC(C)C)C(=O)N[C@@H](CCCCN)C(=O)N[C@@H](C)C(=O)N[C@@H](C)C(=O)NCC(=O)N[C@@H](Cc1c[nH]c2ccccc12)C(N)=O [EEK] | 0.48 | 4.50 | 39 | 730 | 386 | 657 | relatively higher liposome leakage activity | cannot be improved | – | – | – | – | – | – | – | – | – | – | – | –
2 | CC(C)C[C@H](NC(=O)CN)C(=O)N[C@@H](CC(C)C)C(=O)N[C@@H](CCC(=O)O)C(=O)N[C@@H](CC(C)C)C(=O)N[C@@H](CC(C)C)C(=O)N[C@@H](CCC(=O)O)C(=O)N[C@@H](CC(C)C)C(=O)N[C@@H](CC(C)C)C(=O)N[C@@H](CC(C)C)C(=O)N[C@@H](CCC(=O)O)C(=O)N[C@@H](C)C(=O)N[C@@H](C)C(=O)NCC(=O)N[C@@H](Cc1c[nH]c2ccccc12)C(N)=O [EEE] | 1.33 | 4.50 | 35 | 143 | 28 | 346 | – | – | 50 | 6.25 ± 1.77 | 10600 ± 3460 | ≥ 100 | 78.8 ± 5.3 | – | – | – | – | – | – | –
3 | CC(C)C[C@H](NC(=O)CN)C(=O)N[C@@H](CC(C)C)C(=O)N[C@@H](CCC(=O)O)C(=O)N[C@@H](CC(C)C)C(=O)N[C@@H](CC(C)C)C(=O)N[C@@H](Cc1c[nH]cn1)C(=O)N[C@@H](CC(C)C)C(=O)N[C@@H](CC(C)C)C(=O)N[C@@H](CC(C)C)C(=O)N[C@@H](CCC(=O)O)C(=O)N[C@@H](C)C(=O)N[C@@H](C)C(=O)NCC(=O)N[C@@H](Cc1c[nH]c2ccccc12)C(N)=O [EHE] | 0.44 | 0.44 | 75 | 952 | 384 | 706 | relatively higher liposome leakage activity | – | 13 | 3.9 ± 0.28 | 2550 ± 70 | ≥ 100 | 18.2 ± 1.06 | – | – | – | – | – | – | –
4 | COc1cccc2c1C(=O)c1c(O)c3c(c(O)c1C2=O)C[C@@](O)(C(=O)CO)C[C@@H]3O[C@H]1C[C@H](N)[C@H](O)[C@H](C)O1 [Doxorubicin, doxorubicin, reference compound] | – | – | – | – | – | – | – | can be dramatically improved | – | – | – | – | – | 1,700 fold | – | – | – | – | – | –
5 | CC(C)C[C@@H](NC(=O)CN)C(=O)N[C@H](CC(C)C)C(=O)N[C@H](CCC(=O)O)C(=O)N[C@H](CC(C)C)C(=O)N[C@H](CC(C)C)C(=O)N[C@H](CCC(=O)O)C(=O)N[C@H](CC(C)C)C(=O)N[C@H](CC(C)C)C(=O)N[C@H](CC(C)C)C(=O)N[C@H](CCCCN)C(=O)N[C@H](C)C(=O)N[C@H](C)C(=O)NCC(=O)N[C@H](Cc1c[nH]c2ccccc12)C(N)=O [D-form EEK] | – | – | – | – | – | – | – | cannot be improved | – | – | – | – | – | – | – | – | – | – | – | –
6 | CC[C@@H](C(=O)[C@@H](C)[C@@H](O)[C@H](C)[C@@H]1O[C@@H]([C@@H](CC)C(=O)O)CC[C@@H]1C)[C@H]1O[C@]2(C=C[C@@H](O)[C@]3(CC[C@@](C)([C@H]4CC[C@](O)(CC)[C@H](C)O4)O3)O2)[C@H](C)C[C@@H]1C [Salinomycin, salinomycin, reference compound] | – | – | – | – | – | – | – | – | – | – | – | – | – | 63 fold | 0.41 ± 0.1 | 0.37 ± 0.08 | 920 ± 280 | 370 ± 0.5 | 9.76 ± 2.28 | 22 ± 5
7 | CC(C)C[C@H](NC(=O)CN)C(=O)N[C@@H](CC(C)C)C(=O)N[C@@H](CC(=O)O)C(=O)N[C@@H](CC(C)C)C(=O)N[C@@H](CC(C)C)C(=O)N[C@@H](CCC(=O)O)C(=O)N[C@@H](CC(C)C)C(=O)N[C@@H](CC(C)C)C(=O)N[C@@H](CC(C)C)C(=O)N[C@@H](CCCCN)C(=O)N[C@@H](C)C(=O)N[C@@H](C)C(=O)NCC(=O)N[C@@H](Cc1c[nH]c2ccccc12)C(N)=O [DEK] | 1.50 | 1.67 | 10 | 747 | 469 | 773 | relatively higher liposome leakage activity | – | 6.8 ± 0.85 | 1.14 ± 0.52 | 700 ± 70 | ≥ 100 | 19.9 ± 2.65 | – | – | – | – | – | – | –
8 | CC(C)C[C@H](NC(=O)CN)C(=O)N[C@@H](CC(C)C)C(=O)N[C@@H](CCC(=O)O)C(=O)N[C@@H](CC(C)C)C(=O)N[C@@H](CC(C)C)C(=O)N[C@@H](CCC(=O)O)C(=O)N[C@@H](CC(C)C)C(=O)N[C@@H](CC(C)C)C(=O)N[C@@H](CC(C)C)C(=O)N[C@@H](Cc1c[nH]cn1)C(=O)N[C@@H](C)C(=O)N[C@@H](C)C(=O)NCC(=O)N[C@@H](Cc1c[nH]c2ccccc12)C(N)=O [EEH] | 0.50 | 0.50 | 58 | 738 | 168 | 755 | relatively higher liposome leakage activity | – | 12.9 ± 0.14 | 3.3 ± 0.14 | 3600 ± 850 | ≥ 100 | 19.6 ± 3.96 | – | – | – | – | – | – | –
9 | CC(C)C[C@H](NC(=O)CN)C(=O)N[C@@H](CC(C)C)C(=O)N[C@@H](CCCCN)C(=O)N[C@@H](CC(C)C)C(=O)N[C@@H](CC(C)C)C(=O)N[C@@H](CCC(=O)O)C(=O)N[C@@H](CC(C)C)C(=O)N[C@@H](CC(C)C)C(=O)N[C@@H](CC(C)C)C(=O)N[C@@H](CCC(=O)O)C(=O)N[C@@H](C)C(=O)N[C@@H](C)C(=O)NCC(=O)N[C@@H](Cc1c[nH]c2ccccc12)C(N)=O [KEE] | 0.20 | 0.20 | 97 | 626 | 108 | 657 | – | – | 11.1 ± 1.84 | 3.75 ± 0.78 | 2050 ± 210 | ≥ 100 | 49.4 ± 13.3 | – | – | – | – | – | – | –
10 | CC(C)C[C@H](NC(=O)CN)C(=O)N[C@@H](CC(C)C)C(=O)N[C@@H](Cc1c[nH]cn1)C(=O)N[C@@H](CC(C)C)C(=O)N[C@@H](CC(C)C)C(=O)N[C@@H](Cc1c[nH]cn1)C(=O)N[C@@H](CC(C)C)C(=O)N[C@@H](CC(C)C)C(=O)N[C@@H](CC(C)C)C(=O)N[C@@H](CCC(=O)O)C(=O)N[C@@H](C)C(=O)N[C@@H](C)C(=O)NCC(=O)N[C@@H](Cc1c[nH]c2ccccc12)C(N)=O [HHE] | 1.00 | 0.75 | 143 | 842 | 113 | 411 | – | – | 18.4 ± 3.75 | 16.7 ± 2.26 | 10800 ± 780 | – | 53.2 ± 5.3 | – | – | – | – | – | – | –
